Like-named read-outs stand apart in the source and are kept apart here.
How the values were obtained:
[1] = test system: E. multilocularis metacestodes (isolate Sval); test: PGI assay (damage marker release), metacestodes, isolate Sval; format: cell-based, Echinococcus multilocularis; conditions: for cytotoxicity at 10 µM: Echinococcus multilocularis, 120 h, read-out: Metacestodes, PGI assay, relative to positive control Tx-100; for Activity in PGI assay (activity call): threshold >20% of Tx-100
Experimental: (§1) To assess the in vitro efficacy of ELQs against E. multilocularis, (a) the damage-marker phosphoglucose isomerase (PGI) assay was applied against metacestodes, and (b) the germinal layer (GL) cell viability assay was applied to measure effects on isolated GL cells. Both assays are described in more detail below. The drug testing strategy was as follows: PGI assay was first conducted for overview screening at 10 μM with the parasite isolates H95 and Sval. The GL cell viability assay was performed at 0.1 μM with both isolates H95 and Sval.
(§2) The PGI assay measures the amount of PGI that metacestodes release into the medium when damaged ([17], [32]). The purification and in vitro drug incubation of E. multilocularis metacestodes was conducted according to Stadelmann et al. ([32]). In short, cultures were applied for in vitro drug testing at the age of 6-8 weeks. E. multilocularis metacestodes were therefore purified by the addition of 2% saccharose and washed extensively with PBS. Purified metacestodes were suspended 1:3 with DMEM (without phenol red, supplemented with 100 U/mL penicillin, 100 μg/mL streptomycin) and distributed in 48-well plates (1 mL/well, thus 300 μL pure metacestode vesicles per well). […] The corresponding DMSO concentration was used as negative control and Tx-100 (0.1% final concentration) was used for total damage (positive control). […] After 5 days, relative PGI activities were measured and calculated as percentage of the Tx-100 control as described previously in Rufener et al. ([17]). They were calculated as mean values and standard deviations for each triplicate. […] EC50 measurements were performed twice, and averages and standard deviations of these repeated tests are given.

[2] = test system: E. multilocularis metacestodes (isolate H95); test: PGI assay (damage marker release), metacestodes, isolate H95; format: cell-based, Echinococcus multilocularis; conditions: for cytotoxicity at 10 µM: read-out: Metacestodes, PGI assay, relative to positive control Tx-100; for EC50: read-out: EC50 metacestodes
Experimental: as §1, §2

[3] = test system: E. multilocularis GL cells (isolate Sval); test: GL cell viability assay (CellTiter-Glo), isolate Sval; format: cell-based, Echinococcus multilocularis; conditions: for viability at 0.1 µM: Echinococcus multilocularis, 120 h, read-out: GL cells, viability via ATP measurements, relative to DMSO control
Experimental: as §1
(§3) The isolation of E. multilocularis GL cells was done as described previously ([17]) with minor modifications. Fifteen units of GL cells were distributed to each well of a 384 well plate in a total volume of 12.5 μL conditioned medium. The different ELQs were added to the wells to 0.1 μM, in quadruplicates. As a negative control 0.1% DMSO was used. The 384-well plate was incubated for 5 days at 37°C under humid nitrogen atmosphere. Thereafter, viability of the GL cells under different drug treatments was assessed by CellTiter-Glo® (Promega AG, Dübendorf, Switzerland). The CellTiter-Glo reagent was complemented with 1% Tx-100. The luciferase bioluminescence was measured at 530 nm by using the Enspire multilabel reader (PerkinElmer Life Sciences, Schwerzenbach, Switzerland). Using Microsoft Excel, the blank values were subtracted from the experimental values and the relative viability compared to DMSO was calculated. Viabilities were calculated as mean values and standard deviations for each quadruplicate.

[4] = test system: E. multilocularis GL cells (isolate H95); test: GL cell viability assay (CellTiter-Glo), isolate H95; format: cell-based, Echinococcus multilocularis; conditions: for viability at 0.1 µM: Echinococcus multilocularis, 120 h, read-out: GL cells, viability via ATP measurements, relative to DMSO control
Experimental: as §1, §3

[5] = test system: Reuber rat hepatoma (Rh) cells; test: Mammalian cell toxicity, Alamar Blue assay; format: cell-based
Experimental: Compounds were added in a serial dilution (30–0.23 μM, 1:2 dilution steps) and in triplicates. Plates were incubated at 37°C, 5% CO2 and humid atmosphere for 5 days. Resazurin was added to a final concentration of 10 mg/L to each well, and fluorescence measured at 530 nm on an Enspire multilabel plate reader over 3 h. By using Microsoft Office Excel 2010 and a logit-log transformation of the relative growth, IC50 values were calculated. The test was performed twice for each compound, and respective averages and standard deviations are given.

[6] = test system: E. multilocularis metacestodes; set-up: method as in PMID 30396011; conditions: TEM of metacestodes; cited from earlier work
[7] = test system: E. multilocularis metacestodes; test: PGI assay, single and combination treatment under normoxic and anaerobic conditions; format: cell-based, Echinococcus multilocularis; conditions: 10 μM each; 5 days; anaerobic (0% O2)
Experimental: The PGI assay measures the amount of PGI that metacestodes release into the medium when damaged ([17], [32]). The purification and in vitro drug incubation of E. multilocularis metacestodes was conducted according to Stadelmann et al. ([32]). In short, cultures were applied for in vitro drug testing at the age of 6-8 weeks. E. multilocularis metacestodes were therefore purified by the addition of 2% saccharose and washed extensively with PBS. Purified metacestodes were suspended 1:3 with DMEM (without phenol red, supplemented with 100 U/mL penicillin, 100 μg/mL streptomycin) and distributed in 48-well plates (1 mL/well, thus 300 μL pure metacestode vesicles per well). […] The corresponding DMSO concentration was used as negative control and Tx-100 (0.1% final concentration) was used for total damage (positive control). […] After 5 days, relative PGI activities were measured and calculated as percentage of the Tx-100 control as described previously in Rufener et al. ([17]). They were calculated as mean values and standard deviations for each triplicate. EC50 calculations were calculated based on logit-log transformed values in Microsoft Office Excel 2010. EC50 measurements were performed twice, and averages and standard deviations of these repeated tests are given.
For double inhibition of the mitochondrial energy pathways of E. multilocularis, quinazoline as an inhibitor of the anaerobic MD ([29]) was applied in combination with ELQ-400 as an inhibitor of the ETC. Both compounds were tested either alone or in combination at 10 μM with the above-described PGI assay for 5 days for their activity against E. multilocularis metacestodes. PGI assays were done in triplicates and two times independently. […] Results of the assays were calculated as mean values and standard deviations for each biological triplicate were calculated as relative percentage to the Tx-100 control. To assess direct effects on the MD, succinate levels were measured in the supernatants of the PGI assay, as described below. […]

[8] = test system: E. multilocularis metacestodes; test: Succinate concentrations in culture supernatants (malate dismutation activity); format: cell-based, Echinococcus multilocularis; conditions: 10 μM; 5 days; anaerobic
Experimental: Both compounds were tested either alone or in combination at 10 μM with the above-described PGI assay for 5 days for their activity against E. multilocularis metacestodes. PGI assays were done in triplicates and two times independently. […] To assess direct effects on the MD, succinate levels were measured in the supernatants of the PGI assay, as described below. To determine whether differences between groups were significant, data was subjected to student's t-test analysis and P-values below 0.05 are given.
Succinate measurements in supernatants of drug-treated E. multilocularis metacestodes was performed with the “Succinic Acid Assay Kit” (Megazyme, Bray, Ireland). […] 20 μL of each diluted (1:20) sample or standard was used in triplicate for succinate measurements in 96-well plates (flat bottom, Greiner Bio-One GmbH, Frickenhausen, Germany). The reaction mix buffer was prepared as described in the supplier manual: per well 180 μL H2O, 20 μL solvent 1 (buffer, pH 8.4, sodium azide 0.02% w/v), 20 μL solvent 2 (NADH plus stabilizer), 20 μL solvent 3 (ATP, PEP, and CoA) and 2 μL solvent 4 (pyruvate kinase plus L-lactate dehydrogenase suspension) were added. After a 180 s pre-incubation time, a first measurement at 340 nm was done on an EnSpire multilabel plate reader (PerkinElmer Life Sciences, Schwerzenbach, Switzerland). 10 μL solvent 5 (succinyl-CoA synthetase suspension; 1:10 diluted) were then added to each well and the plate was read at 340 nm for 1 h every minute. […] Succinate levels are shown as mean values with standard deviations of biological triplicates. To determine whether differences between groups were significant, data was subjected to student's t-test analysis and P-values below 0.05 are given.

[9] = isolate Sval, 10 μM, 5 days, normoxic, mean (SD) of triplicates, active if >20%
[10] = Echinococcus multilocularis, 120 h, isolate H95, 10 μM, 5 days, normoxic, mean (SD) of triplicates, active if >20%
[11] = isolate Sval, 0.1 μM, 5 days, nitrogen atmosphere, mean (SD), active if <30%
[12] = isolate H95, 0.1 μM, 5 days, nitrogen atmosphere, mean (SD), active if <30%
[13] = Echinococcus multilocularis, 120 h
[14] = Echinococcus multilocularis, 120 h, isolate H95, PGI assay, 5 days, range tested 30–0.12 μM, mean (SD) of two tests
[15] = Rattus norvegicus, 120 h, confluent Rh cells, Alamar blue, 5 days, range tested 30–0.23 μM, mean (SD) of two tests, read-out: IC50 Rh confluent
[16] = Rattus norvegicus, 120 h, preconfluent Rh cells, Alamar blue, 5 days, range tested 30–0.23 μM, mean (SD) of two tests, read-out: IC50 Rh preconfluent
[17] = isolate H95, 10 μM, 5 days, normoxic, mean (SD) of triplicates, active if >20%

CCCCCCCc1c(C)[nH]c2cc(OC)ccc2c1=O [ELQ-100]
cytotoxicity at 10 µM [1, 9]: 0%
cytotoxicity at 10 µM [2, 10]: 1.4%
viability at 0.1 µM [3, 11]: 57.9%
viability at 0.1 µM [4, 12]: 100%

CCCCCCCc1c(C)[nH]c2cc(F)cc(F)c2c1=O [ELQ-121]
cytotoxicity at 10 µM [1]: 20.9%
Activity in PGI assay (activity call) ([1]; isolate Sval, 10 μM): activity
EC50 [2, 13]: 1.19 µM
cytotoxicity at 10 µM [2, 13]: 15.2%
viability at 0.1 µM [3]: 7.3%
viability at 0.1 µM [4]: 1%
IC50 ([5]; Rattus norvegicus, 120 h, read-out: IC50 Rh confluent): > 30 µM
IC50 ([5]; Rattus norvegicus, 120 h, read-out: IC50 Rh preconfluent): > 30 µM

CCCCCCCc1c(C)[nH]c2ccccc2c1=O [ELQ-127]
cytotoxicity at 10 µM [1, 9]: 2.5%
cytotoxicity at 10 µM [2, 10]: 11.7%
viability at 0.1 µM [3, 11]: 40.4%
viability at 0.1 µM [4, 12]: 17.2%

CCCCCCCc1c(C)[nH]c2cccc(F)c2c1=O [ELQ-136]
cytotoxicity at 10 µM [1, 9]: 7%
cytotoxicity at 10 µM [2, 10]: 21.4%
EC50 [2, 14]: 0.22 µM
viability at 0.1 µM [3, 11]: 15.1%
viability at 0.1 µM [4, 12]: 8.4%
IC50 [5, 15]: > 30 µM
IC50 [5, 16]: > 30 µM

Cc1[nH]c2ccccc2c(=O)c1-c1ccc(Oc2ccc(OC(F)(F)F)cc2)cc1 [ELQ-271]
Metacestodes, PGI assay, relative to positive control Tx-100 [1, 9]: 56.9 (4.3) %
Activity in PGI assay (activity call) ([1]; isolate Sval, 10 μM): activity
Metacestodes, PGI assay, relative to positive control Tx-100 [2, 17]: 33 (1.7) %
EC50 ([2]; isolate H95, PGI assay, 5 days, range tested 30–0.12 μM, mean (SD) of two tests): 0.24 µM
GL cells, viability via ATP measurements, relative to DMSO control [3, 11]: 25.4 (7.2) %
GL cells, viability via ATP measurements, relative to DMSO control [4, 12]: 2.7 (1.6) %
IC50 ([5]; confluent Rh cells, Alamar blue, 5 days, range tested 30–0.23 μM, mean (SD) of two tests, read-out: IC50 Rh confluent): > 30 µM
IC50 ([5]; preconfluent Rh cells, Alamar blue, 5 days, range tested 30–0.23 μM, mean (SD) of two tests, read-out: IC50 Rh preconfluent): 8.64 µM

COc1cc2[nH]c(C)c(-c3ccc(Oc4ccc(OC(F)(F)F)cc4)cc3)c(=O)c2cc1Cl [ELQ-300]
Metacestodes, PGI assay, relative to positive control Tx-100 [1, 9]: 7.6 (1.1) %
Metacestodes, PGI assay, relative to positive control Tx-100 [2, 17]: 6.6 (2.2) %
GL cells, viability via ATP measurements, relative to DMSO control [3, 11]: 46.9 (9.6) %
GL cells, viability via ATP measurements, relative to DMSO control [4, 12]: 84.0 (7.0) %

COc1cc2[nH]c(C)c(-c3ccc(Oc4ccc(OC(F)(F)F)cc4)cc3)c(=O)c2cc1F [ELQ-316]
Metacestodes, PGI assay, relative to positive control Tx-100 [1, 9]: 4.6 (1.3) %
Metacestodes, PGI assay, relative to positive control Tx-100 [2, 17]: 21.4 (0.1) %
GL cells, viability via ATP measurements, relative to DMSO control [3, 11]: 58 (5.3) %
GL cells, viability via ATP measurements, relative to DMSO control [4, 12]: 81.1 (9.5) %

CCCCCCCc1c(C)[nH]c2cc(OC)c(F)cc2c1=O [ELQ-433]
cytotoxicity at 10 µM [1, 9]: 1.8%
cytotoxicity at 10 µM [2, 10]: 4.3%
viability at 0.1 µM [3, 11]: 62.1%
viability at 0.1 µM [4, 12]: 96.4%

CCCCCCCCCCCc1c(C)[nH]c2cc(OC)c(Cl)cc2c1=O [ELQ-434]
cytotoxicity at 10 µM [1, 9]: 0.6%
cytotoxicity at 10 µM [2, 10]: 0.4%
viability at 0.1 µM [3, 11]: 81.3%
viability at 0.1 µM [4, 12]: 33.3%

CCCCCCCCCCCc1c(C)[nH]c2cc(OC)c(F)cc2c1=O [ELQ-435]
cytotoxicity at 10 µM [1, 9]: 0%
cytotoxicity at 10 µM [2, 10]: 2.6%
viability at 0.1 µM [3, 11]: 80.1%
viability at 0.1 µM [4, 12]: 15.6%

CCCCCCCCCCCc1c(C)[nH]c2ccccc2c1=O [ELQ-436]
cytotoxicity at 10 µM [1, 9]: 3.1%
cytotoxicity at 10 µM [2, 10]: 3.4%
viability at 0.1 µM [3, 11]: 16.4%
viability at 0.1 µM [4, 12]: 14%

CCCCCCCCCCCc1c(C)[nH]c2cc(F)cc(F)c2c1=O [ELQ-437]
cytotoxicity at 10 µM [1, 9]: 33.1%
Activity in PGI assay (activity call) ([1]; isolate Sval, 10 μM): activity
cytotoxicity at 10 µM [2, 10]: 37.6%
EC50 [2, 14]: 1.71 µM
viability at 0.1 µM [3, 11]: 19.1%
viability at 0.1 µM [4, 12]: 19.7%
IC50 [5, 15]: > 30 µM
IC50 [5, 16]: > 30 µM

CC(C)(C)[C@H]1CC[C@H](CC2=C(O)C(=O)c3ccccc3C2=O)CC1 [buparvaquone]
Concentration already affecting the parasite ultrastructure (electron dense mitochondrial matrix) [6]: 0.3 µM

c1ccc2ncncc2c1 [quinazoline, reference compound]
PGI release of metacestodes relative to Tx-100 [7]: no PGI release
Release of succinate by metacestodes compared to DMSO control [8]: significant reduction
